# According to patent US6489469B1, “Method for storing or transporting erythritol solution” (Nikken Chemicals Co., Ltd., priority 1999, dated 2002):
# Columns and labels:
# [1] = system: Bacillus stearothermophilus IFO 12550; assay: Viable Count of Bacillus stearothermophilus IFO 12550 in Erythritol Solution (heat resistant bacteria); type: cell-based
# Description: Erythritol solutions of respective concentrations in the range of from 30 to 70% were prepared. To these was inoculated Bacillus stearothermophilus IFO 12550 as a heat resistant bacterium in a population (concentration) of 10,000 cells/mL or more.
# After the inoculation, the solutions were stored at 50, 60 or 75° C., respectively, for 56 days and the number of viable cell was determined daily. The determination of the number of viable cell was performed by in the same manner as in Example 1.
# [2] = Long-term Stability of Erythritol Solution by High Temperature Storage; type: physicochemical; design: change in the degree of coloring / Degree of Coloring: scale not given here
# Description: solutions having erythritol concentrations of 50%, 55%, 58% and 62%, respectively, were prepared and stored at 55° C., 60° C., 65° C. and 75° C. respectively, for 2 months and degree of coloring, pH, and purity were measured and the degree of deterioration was studied.
# [3] = 75° C., short period of 10 days or less
# [4] = Storage Temperature: 55° C., Erythritol Concentration: 50%, 0 days
# [5] = Storage Temperature: 55° C., Erythritol Concentration: 50%, 10 days
# [6] = Storage Temperature: 55° C., Erythritol Concentration: 50%, 30 days
# [7] = Storage Temperature: 55° C., Erythritol Concentration: 50%, 60 days
# [8] = Storage Temperature: 60° C., Erythritol Concentration: 55%, 0 days
# [9] = Storage Temperature: 60° C., Erythritol Concentration: 55%, 10 days
# [10] = Storage Temperature: 60° C., Erythritol Concentration: 55%, 30 days
# [11] = Storage Temperature: 60° C., Erythritol Concentration: 55%, 60 days
# [12] = Storage Temperature: 65° C., Erythritol Concentration: 58%, 0 days
# [13] = Storage Temperature: 65° C., Erythritol Concentration: 58%, 10 days
# [14] = Storage Temperature: 65° C., Erythritol Concentration: 58%, 30 days
# [15] = Storage Temperature: 65° C., Erythritol Concentration: 58%, 60 days
# [16] = Storage Temperature: 75° C., Erythritol Concentration: 62%, 0 days
# [17] = Storage Temperature: 75° C., Erythritol Concentration: 62%, 10 days
# [18] = Storage Temperature: 75° C., Erythritol Concentration: 62%, 30 days
# [19] = Storage Temperature: 75° C., Erythritol Concentration: 62%, 60 days
smiles,measurement,setting,value
"OC[C@@H](O)[C@@H](O)CO [Erythritol Solution, erythritol]",The Number of Viable Cell,"[1]; 50° C., 30% w/w, Day 0",10000 or more cells/mL
same,The Number of Viable Cell,"[1]; 50° C., 30% w/w, Day 3",70 cells/mL
same,The Number of Viable Cell,"[1]; 50° C., 30% w/w, Day 7",60 cells/mL
same,The Number of Viable Cell,"[1]; 50° C., 30% w/w, Day 14",40 cells/mL
same,The Number of Viable Cell,"[1]; 50° C., 30% w/w, Day 28",60 cells/mL
same,The Number of Viable Cell,"[1]; 50° C., 30% w/w, Day 56",50 cells/mL
same,The Number of Viable Cell,"[1]; 50° C., 40% w/w, Day 0",10000 or more cells/mL
same,The Number of Viable Cell,"[1]; 50° C., 40% w/w, Day 3",40 cells/mL
same,The Number of Viable Cell,"[1]; 50° C., 40% w/w, Day 7",50 cells/mL
same,The Number of Viable Cell,"[1]; 50° C., 40% w/w, Day 14",50 cells/mL
same,The Number of Viable Cell,"[1]; 50° C., 40% w/w, Day 28",50 cells/mL
same,The Number of Viable Cell,"[1]; 50° C., 40% w/w, Day 56",60 cells/mL
same,The Number of Viable Cell,"[1]; 50° C., 50% w/w, Day 0",10000 or more cells/mL
same,The Number of Viable Cell,"[1]; 50° C., 50% w/w, Day 3",100 cells/mL
same,The Number of Viable Cell,"[1]; 50° C., 50% w/w, Day 7",100 cells/mL
same,The Number of Viable Cell,"[1]; 50° C., 50% w/w, Day 14",50 cells/mL
same,The Number of Viable Cell,"[1]; 50° C., 50% w/w, Day 28",70 cells/mL
same,The Number of Viable Cell,"[1]; 50° C., 50% w/w, Day 56",120 cells/mL
same,The Number of Viable Cell,"[1]; 60° C., 30% w/w, Day 0",10000 or more cells/mL
same,The Number of Viable Cell,"[1]; 60° C., 30% w/w, Day 3",90 cells/mL
same,The Number of Viable Cell,"[1]; 60° C., 30% w/w, Day 7",60 cells/mL
same,The Number of Viable Cell,"[1]; 60° C., 30% w/w, Day 14",90 cells/mL
same,The Number of Viable Cell,"[1]; 60° C., 30% w/w, Day 28",300 cells/mL
same,The Number of Viable Cell,"[1]; 60° C., 30% w/w, Day 56",0 cells/mL
same,The Number of Viable Cell,"[1]; 60° C., 40% w/w, Day 0",10000 or more cells/mL
same,The Number of Viable Cell,"[1]; 60° C., 40% w/w, Day 3",60 cells/mL
same,The Number of Viable Cell,"[1]; 60° C., 40% w/w, Day 7",70 cells/mL
same,The Number of Viable Cell,"[1]; 60° C., 40% w/w, Day 14",200 cells/mL
same,The Number of Viable Cell,"[1]; 60° C., 40% w/w, Day 28",320 cells/mL
same,The Number of Viable Cell,"[1]; 60° C., 40% w/w, Day 56",0 cells/mL
same,The Number of Viable Cell,"[1]; 60° C., 50% w/w, Day 0",10000 or more cells/mL
same,The Number of Viable Cell,"[1]; 60° C., 50% w/w, Day 3",100 cells/mL
same,The Number of Viable Cell,"[1]; 60° C., 50% w/w, Day 7",150 cells/mL
same,The Number of Viable Cell,"[1]; 60° C., 50% w/w, Day 14",200 cells/mL
same,The Number of Viable Cell,"[1]; 60° C., 50% w/w, Day 28",330 cells/mL
same,The Number of Viable Cell,"[1]; 60° C., 50% w/w, Day 56",0 cells/mL
same,The Number of Viable Cell,"[1]; 60° C., 60% w/w, Day 0",10000 or more cells/mL
same,The Number of Viable Cell,"[1]; 60° C., 60% w/w, Day 3",130 cells/mL
same,The Number of Viable Cell,"[1]; 60° C., 60% w/w, Day 7",100 cells/mL
same,The Number of Viable Cell,"[1]; 60° C., 60% w/w, Day 14",150 cells/mL
same,The Number of Viable Cell,"[1]; 60° C., 60% w/w, Day 28",120 cells/mL
same,The Number of Viable Cell,"[1]; 60° C., 60% w/w, Day 56",0 cells/mL
same,time after which all the cells died,[1]; 75° C.,14 days
same,The Number of Viable Cell,"[1]; 75° C., 30% w/w, Day 0",10000 or more cells/mL
same,The Number of Viable Cell,"[1]; 75° C., 30% w/w, Day 3",350 cells/mL
same,The Number of Viable Cell,"[1]; 75° C., 30% w/w, Day 7",340 cells/mL
same,The Number of Viable Cell,"[1]; 75° C., 30% w/w, Day 14",0 cells/mL
same,The Number of Viable Cell,"[1]; 75° C., 30% w/w, Day 28",0 cells/mL
same,The Number of Viable Cell,"[1]; 75° C., 30% w/w, Day 56",0 cells/mL
same,The Number of Viable Cell,"[1]; 75° C., 40% w/w, Day 0",10000 or more cells/mL
same,The Number of Viable Cell,"[1]; 75° C., 40% w/w, Day 3",330 cells/mL
same,The Number of Viable Cell,"[1]; 75° C., 40% w/w, Day 7",490 cells/mL
same,The Number of Viable Cell,"[1]; 75° C., 40% w/w, Day 14",0 cells/mL
same,The Number of Viable Cell,"[1]; 75° C., 40% w/w, Day 28",0 cells/mL
same,The Number of Viable Cell,"[1]; 75° C., 40% w/w, Day 56",0 cells/mL
same,The Number of Viable Cell,"[1]; 75° C., 50% w/w, Day 0",10000 or more cells/mL
same,The Number of Viable Cell,"[1]; 75° C., 50% w/w, Day 3",220 cells/mL
same,The Number of Viable Cell,"[1]; 75° C., 50% w/w, Day 7",590 cells/mL
same,The Number of Viable Cell,"[1]; 75° C., 50% w/w, Day 14",0 cells/mL
same,The Number of Viable Cell,"[1]; 75° C., 50% w/w, Day 28",0 cells/mL
same,The Number of Viable Cell,"[1]; 75° C., 50% w/w, Day 56",0 cells/mL
same,The Number of Viable Cell,"[1]; 75° C., 60% w/w, Day 0",10000 or more cells/mL
same,The Number of Viable Cell,"[1]; 75° C., 60% w/w, Day 3",170 cells/mL
same,The Number of Viable Cell,"[1]; 75° C., 60% w/w, Day 7",480 cells/mL
same,The Number of Viable Cell,"[1]; 75° C., 60% w/w, Day 14",0 cells/mL
same,The Number of Viable Cell,"[1]; 75° C., 60% w/w, Day 28",0 cells/mL
same,The Number of Viable Cell,"[1]; 75° C., 60% w/w, Day 56",0 cells/mL
same,The Number of Viable Cell,"[1]; 75° C., 70% w/w, Day 0",10000 or more cells/mL
same,The Number of Viable Cell,"[1]; 75° C., 70% w/w, Day 3",140 cells/mL
same,The Number of Viable Cell,"[1]; 75° C., 70% w/w, Day 7",210 cells/mL
same,The Number of Viable Cell,"[1]; 75° C., 70% w/w, Day 14",0 cells/mL
same,The Number of Viable Cell,"[1]; 75° C., 70% w/w, Day 28",0 cells/mL
same,The Number of Viable Cell,"[1]; 75° C., 70% w/w, Day 56",0 cells/mL
same,growth of the bacteria,"[1]; all the concentrations, temperature of 50° C. or more",inhibited
same,change in pH,[2]; [3],≤ 1
same,change in purity,[2]; [3],no change
same,change in the degree of coloring,[2]; [3],≤ 0.01
same,Degree of Coloring,[2]; [4],0.028
same,Purity (%),[2]; [4],99.9%
same,pH,[2]; [4],5.7
same,Degree of Coloring,[2]; [5],0.028
same,Purity (%),[2]; [5],99.9%
same,pH,[2]; [5],5.6
same,Degree of Coloring,[2]; [6],0.026
same,Purity (%),[2]; [6],100.0%
same,pH,[2]; [6],5.4
same,Degree of Coloring,[2]; [7],0.027
same,Purity (%),[2]; [7],100.0%
same,pH,[2]; [7],5.1
same,Degree of Coloring,[2]; [8],0.021
same,Purity (%),[2]; [8],99.9%
same,pH,[2]; [8],5.7
same,Degree of Coloring,[2]; [9],0.021
same,Purity (%),[2]; [9],99.9%
same,pH,[2]; [9],5.4
same,Degree of Coloring,[2]; [10],0.023
same,Purity (%),[2]; [10],99.9%
same,pH,[2]; [10],5.5
same,Degree of Coloring,[2]; [11],0.028
same,Purity (%),[2]; [11],99.9%
same,pH,[2]; [11],5.0
same,Degree of Coloring,[2]; [12],0.029
same,Purity (%),[2]; [12],100.0%
same,pH,[2]; [12],5.7
same,Degree of Coloring,[2]; [13],0.030
same,Purity (%),[2]; [13],99.9%
same,pH,[2]; [13],5.5
same,Degree of Coloring,[2]; [14],0.029
same,Purity (%),[2]; [14],100.0%
same,pH,[2]; [14],5.2
same,Degree of Coloring,[2]; [15],0.036
same,Purity (%),[2]; [15],99.9%
same,pH,[2]; [15],4.7
same,Degree of Coloring,[2]; [16],0.025
same,Purity (%),[2]; [16],99.9%
same,pH,[2]; [16],5.7
same,Degree of Coloring,[2]; [17],0.027
same,Purity (%),[2]; [17],99.9%
same,pH,[2]; [17],5.2
same,Degree of Coloring,[2]; [18],0.033
same,Purity (%),[2]; [18],99.9%
same,pH,[2]; [18],4.8
same,Degree of Coloring,[2]; [19],0.065
same,Purity (%),[2]; [19],99.9%
same,pH,[2]; [19],3.9
same,"storage stability (purity, coloring)",[2]; storage at a temperature of 55 to 65° C.,without causing a decrease in purity or causing coloring
